For assay [1], the target named is Sodium-dependent noradrenaline transporter (Homo sapiens, UniProt P23975). The assay can be described thus: Displacement of [3H]nisoxetine from NET. For orientation: In a radioligand displacement assay an active substance lowers the binding of a labelled ligand.
Assay [2] has as its target Sodium-dependent dopamine transporter (Homo sapiens, UniProt Q01959). The assay can be described thus: Displacement of [123I]RTI-55 from DAT.

Molecules are shown by their SMILES.

Sequence of Sodium-dependent noradrenaline transporter (P23975 whole entry): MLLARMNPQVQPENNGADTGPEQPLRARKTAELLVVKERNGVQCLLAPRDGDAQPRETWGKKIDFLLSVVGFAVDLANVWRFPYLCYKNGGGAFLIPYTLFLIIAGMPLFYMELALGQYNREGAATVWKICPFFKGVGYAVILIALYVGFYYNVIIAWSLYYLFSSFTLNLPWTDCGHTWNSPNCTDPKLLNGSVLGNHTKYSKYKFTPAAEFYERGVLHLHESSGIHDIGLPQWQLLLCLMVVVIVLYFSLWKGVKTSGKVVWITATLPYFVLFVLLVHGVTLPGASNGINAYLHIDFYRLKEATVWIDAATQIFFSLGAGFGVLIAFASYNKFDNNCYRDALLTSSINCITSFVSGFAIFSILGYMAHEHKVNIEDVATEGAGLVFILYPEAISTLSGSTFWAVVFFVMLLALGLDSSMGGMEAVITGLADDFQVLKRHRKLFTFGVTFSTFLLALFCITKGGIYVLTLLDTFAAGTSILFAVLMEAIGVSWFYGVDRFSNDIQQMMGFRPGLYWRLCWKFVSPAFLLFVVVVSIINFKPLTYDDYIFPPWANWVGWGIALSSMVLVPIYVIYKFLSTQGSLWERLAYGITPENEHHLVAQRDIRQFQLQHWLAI
Sequence of Sodium-dependent dopamine transporter (Q01959 whole entry): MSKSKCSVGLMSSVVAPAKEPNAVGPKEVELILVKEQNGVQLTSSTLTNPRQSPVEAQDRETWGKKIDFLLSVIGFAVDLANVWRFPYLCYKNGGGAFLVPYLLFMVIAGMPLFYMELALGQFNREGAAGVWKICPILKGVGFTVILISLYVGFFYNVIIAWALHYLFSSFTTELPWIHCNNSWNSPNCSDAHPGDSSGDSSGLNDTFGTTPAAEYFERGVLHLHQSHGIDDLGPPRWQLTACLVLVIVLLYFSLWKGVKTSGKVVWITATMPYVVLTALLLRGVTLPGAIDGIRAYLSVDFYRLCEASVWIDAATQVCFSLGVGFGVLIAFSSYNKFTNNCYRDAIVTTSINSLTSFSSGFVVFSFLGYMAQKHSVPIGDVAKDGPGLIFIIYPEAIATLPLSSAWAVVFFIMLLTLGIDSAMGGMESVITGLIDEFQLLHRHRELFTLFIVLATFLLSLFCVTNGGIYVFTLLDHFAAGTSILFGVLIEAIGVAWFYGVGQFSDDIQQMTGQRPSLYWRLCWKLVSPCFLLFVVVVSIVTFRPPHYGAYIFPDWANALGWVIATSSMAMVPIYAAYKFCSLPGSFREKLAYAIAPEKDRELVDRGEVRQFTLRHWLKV

For the compound `COC(=O)C1C2CCC(CC1c1ccc(/C=C\I)cc1)N2` (configuration not stated), the Ki (usually the equilibrium dissociation constant of an inhibitor or competing ligand from its target) in assay [1] worked out at 15 nM; in assay [2] it was 6 nM.
